How the values were obtained:
[1] = tested on: Mino cells (MCL cell line); experiment: Tumor cell proliferation, CellTiter-Glo, Mino; assay type: cell-based; conditions: Homo sapiens, 144 h, 6-day exposure, mean of 3 independent assays, read-out: Potency IC50
Description: 3 MCL cell lines (Rec-1, Mino and JEKO-1) and an ABC type diffuse large B-cell lymphoma cell line (TMD8) were used in this study. Cell lines were maintained in RPMI-1640 supplemented with 10% fetal bovine serum/FBS (Thermo Scientific); 100 units/ml penicillin (Gibco) and 0.1 mg/ml streptomycin (Gibco) and kept at 37° C. in a humidified atmosphere of 5% CO2 in air. Cell lines were reinstated from frozen stocks that were laid down within 30 passages from the original cells purchased.
The growth-inhibitory activity of compounds in Rec-1, Mino, JEKO-1 and TMD-8 cells was determined using CellTiter-Glo luminescent cell viability assay (Promega). The number of cells seeded per well of a 96-well plate was optimized for each cell line to ensure logarithmic growth over 6 days treatment period. Cells were treated in triplicate with a 10-point dilution series. […] Mixture was mixed on an orbital shaker for 2 minutes to allow cell lysis, followed by 10 minutes incubation at room temperature to allow development and stabilization of luminescent signal, which corresponded to quantity of ATP and thus the quantity of metabolically active cells. Luminescent signal was measured using PHERAstar FS reader (BMG Labtech). IC50 values for cell viability were determined with GraphPad Prism software and were the mean of 3 independent assays.

Hygroscopic test (DVS) = assay type: physicochemical; conditions: 80% RH, 25° C.
Description: The dynamic vapor sorption (DVS) plots shown as in FIG. 6 was collected a SMS (Surface Measurement Systems) DVS Intrinsic. The DVS parameters used includes: temperature (25° C.); dm/dt (0.002%/min); Min. dm/dt stability duration (10 min); Max. equilibrium time (180 min); RH range (0% RH to 95% RH); RH step size(10% RH from 0% RH to 90% RH, 5% RH from 90% RH to 95% RH).

## C=CC(=O)N1CCC([C@@H]2CCNc3c(C(N)=O)c(-c4ccc(Oc5ccccc5)cc4)nn32)CC1 [Crystalline Form A, (S)-7-(1-acryloylpiperidin-4-yl)-2-(4-phenoxyphenyl)-4,5,6,7-tetra-hydropyrazolo[1,5-a]pyrimidine-3-carboxamide]
[1]
  IC50: 3.8 nM
Hygroscopic test (DVS)
  increase of mass (DVS): about 0.8%

Source: patent publication US10927117B2 (BEIGENE SWITZERLAND GMBH, priority 2016, dated 2021)
